Measured values: paper PMC8584173, “The Cytotoxic Effect of Copper (II) Complexes with Halogenated 1,3-Disubstituted Arylthioureas on Cancer and Bacterial Cells” (International Journal of Molecular Sciences, 2021)
Where “and” joins values, the source holds several entries; their conditions need not be identical. Identical values can stand only once.

Columns and labels:
[1] = system: Peroxiredoxin-2 (PRDX2_HUMAN); assay: LC–MS proteome analysis, PRDX2; type: cell-based, Homo sapiens; conditions: IC50 concentration, % of control
Method: (§1) Enzymes involved in oxidoreductive potential were analyzed in the cell lysates obtained after treatment cells with selected conjugates for 24 h. Cells were washed with phosphate-buffered saline (PBS) and harvested, then centrifuged at 1000× g for 10 min. Then, lysis buffer (containing protease inhibitor, 1% RIPA Lysis and Extraction Buffer (ThermoFisher)) and cold PBS were added, and samples were sonicated three times in ice bath. Next, the cell lysates were centrifuged at 14,000× g at 4 °C for 15 min, and then supernatants were stored at […] before use. Protein concentration was measured by the Bradford method.
(§2) Normalized protein concentrations (5 µg) from cell lysate were precipitated by ice cold (–20 °C) acetonitrile (ACN, Merck, in ratio 1:4). Then, samples were centrifuged (–9 °C, 30 min., 18,000× g), the supernatant was discarded and ACN excess was evaporated using a vacuum centrifuge (5 min., room temp.). Protein pellet was dissolved in 40 mM ammonium bicarbonate. An amount of 500 mM dithiothreitol (DTT, with final concentration 20 mM) and 1 M iodoacetamide (IAA, with final concentration 40 mM) were used for reduction and alkylation processes. After 16 h of incubation in 37 °C with Trypsin Gold (Promega), digested protein samples were diluted with 0.1% formic acid (ThermoFisher) and centrifuged (+2 °C, 30 min, 18,000× g).
(§3) LC–MS analysis was carried out with the use of nanoUHPLC (nanoElute, Bruker) coupled by CaptiveSpray (Bruker) to ESI-Q-TOF mass spectrometer (Compact, Bruker). Two-column separation method was used, i.e., pre-column (300 µm × 5 mm, C18 PepMap 100, 5 µm, 100Å, Thermo Scientific) and Aurora separation column with CSI fitting (75 µm × 250 mm, C18 1.6 µm) in gradient 2% B to 35% B in 90 min with the 300 nL/min flow rate. Mobile phases (A) 0.1% formic acid in water and (B) 0.1% formic acid in ACN were used.
(§4) Sample ionizations were performed at a gas flow of 3.0 L/min, temperature of 150 °C and voltage of the capillary at 1600 V. The quadrupole energy was fixed to 5.0 eV and collision chamber energy 7.0 eV, with an ion transfer time of 90 µs. The ions were analyzed in the positive polarity mode in the range 150–2200 m/z, with the acquisition frequency of the 1 Hz spectrum, as well as with the autoMS/MS system.
(§5) The collected spectra were analyzed and calibrated using DataAnalysis software (Bruker) and then identified in ProteinScape (Bruker) by the MASCOT server. Protein identification was conducted using the online SwissProt and NCBIprot databases, and their references and biological significance were identified using Reactome.org, String.org and KEGG.

[2] = system: Superoxide dismutase [Mn], mitochondrial (SODM_HUMAN); assay: LC–MS proteome analysis, SODM; type: cell-based, Homo sapiens; conditions: IC50 concentration, % of control
Method: as §1, §2, §3, §4, §5

[3] = system: Peroxiredoxin-5, mitochondrial (PRDX5_HUMAN); assay: LC–MS proteome analysis, PRDX5; type: cell-based, Homo sapiens; conditions: IC50 concentration, % of control
Method: as §1, §2, §3, §4, §5

[4] = system: Glutathione S-transferase P (GSTP1_HUMAN); assay: LC–MS proteome analysis, GSTP1; type: cell-based, Homo sapiens; conditions: IC50 concentration, % of control
Method: as §1, §2, §3, §4, §5

[5] = system: Glutathione S-transferase A1 (GSTA1_HUMAN); assay: LC–MS proteome analysis, GSTA1; type: cell-based, Homo sapiens; conditions: for Protein Intensity, % (GSTA1): IC50 concentration, % of control; for decrease in the amount of GSTA1: SW620, IC50 concentration
Method: as §1, §2, §3, §4, §5

SW620 cells = assay: Annexin V-FITC/PI flow cytometry, SW620; type: cell-based, human; conditions: SW620, IC50 dose, 72 h
Method: The cells were cultured and harvested under the conditions described in the cell culture section. […] The effect of these compounds on the process of early and late apoptosis and necrosis was determined, as described previously, by dual staining with annexin V-FITC and propidium iodide according to manufacturer’s protocol (Becton Dickinson). The cells that were annexin V-FITC positive and PI-negative were identified as early apoptotic and annexin V-FITC and PI-positive as late apoptotic or necrotic.

[6] = system: Peroxiredoxin-1 (PRDX1_HUMAN); assay: LC–MS proteome analysis, PRDX1; type: cell-based, Homo sapiens; conditions: IC50 concentration, % of control
Method: as §1, §2, §3, §4, §5

standard staphylococci = assay: MIC, standard staphylococci; type: cell-based, Staphylococcus; conditions: standard staphylococci / S. aureus isolates
Method: The antimicrobial activity of the compounds was tested on Gram-positive bacteria (Staphylococcus aureus NCTC 4163, Staphylococcus aureus ATCC 25923, Staphylococcus aureus ATCC 6538, Staphylococcus aureus ATCC 29213, Staphylococcus epidermidis ATCC 12228, Staphylococcus epidermidis ATCC 35984), Gram-negative rods (Escherichia coli ATCC 10538, Escherichia coli ATCC 25922, Pseudomonas aeruginosa ATCC 15442, Pseudomonas aeruginosa ATCC 27863) and yeasts (Candida albicans ATCC 10231, Candida albicans ATCC 90028, Candida parapsilosis ATCC 22019). Hospital methicillin-resistant strains of Staphylococcus aureus and Staphylococcus epidermidis were obtained from the collection of the Department of Pharmaceutical Microbiology, Medical University of Warsaw, Poland.
Antifungal activities were assessed using Mueller–Hinton agar + 2% glucose and 0.5 µg/mL methylene blue dye medium. Sterile filter paper discs (9 mm diameter, Whatman Number 3 chromatography paper) were dripped with tested compound solutions (in dimethylsulfoxide, DMSO) to load 400 μg of a given compound per disc. Dry discs were placed on the surface of appropriate agar medium. The results (diameter of the growth inhibition zone) were read after 18 h of incubation at 35 °C. Minimal inhibitory concentration (MIC) was tested by the twofold serial microdilution method (in 96-well microtiter plates) using Mueller–Hinton broth medium (Beckton Dickinson) for bacteria or RPMI-1640 medium for Candida species, according to CLSI guidelines. The stock solution of tested agent was prepared in DMSO and diluted in sterile water. […] The final inoculum of all studied microorganisms was 10^5 CFU/ mL^−1 (colony forming units per ml). Minimal inhibitory concentrations (the lowest concentration of a tested agent that prevents visible growth of a microorganism) were read after 18 h (bacteria) or 24 h (yeasts) of incubation at 35 °C.

[7] = system: detoxifying and ROS-scavenging enzymes (GST, GR, SOD, PRDX); assay: LC–MS proteome analysis, all 12 tested enzymes (text summaries); type: cell-based, human; conditions: PC3, IC50 concentration, span over enzymes
Method: as §1, §2
LC–MS analysis was carried out with the use of nanoUHPLC (nanoElute, Bruker) coupled by CaptiveSpray (Bruker) to ESI-Q-TOF mass spectrometer (Compact, Bruker). […]
as §4
The collected spectra were analyzed and calibrated using DataAnalysis software (Bruker) and then identified in ProteinScape (Bruker) by the MASCOT server. […]

SMILES	Protein Intensity, % (PRDX2) ([1]; PC3, 24 h) [%]	Protein Intensity, % (PRDX2) ([1]; SW480, 24 h) [%]	Protein Intensity, % (PRDX2) ([1]; SW620, 24 h) [%]	Protein Intensity, % (SODM) ([2]; PC3, 24 h)	Protein Intensity, % (SODM) ([2]; SW480, 24 h) [%]	Protein Intensity, % (SODM) ([2]; SW620, 24 h) [%]	Protein Intensity, % (PRDX5) ([3]; PC3, 24 h)	Protein Intensity, % (PRDX5) ([3]; SW480, 24 h) [%]	Protein Intensity, % (PRDX5) ([3]; SW620, 24 h) [%]	Protein Intensity, % (GSTP1) ([4]; PC3, 24 h) [%]	Protein Intensity, % (GSTP1) ([4]; SW480, 24 h) [%]	Protein Intensity, % (GSTP1) ([4]; SW620, 24 h) [%]	Protein Intensity, % (GSTA1) ([5]; PC3, 24 h) [%]	Protein Intensity, % (GSTA1) ([5]; SW480, 24 h) [%]	Protein Intensity, % (GSTA1) ([5]; SW620, 24 h) [%]	early apoptosis, % of cells (SW620 cells)	Protein Intensity, % (PRDX1) ([6]; PC3, 24 h) [%]	Protein Intensity, % (PRDX1) ([6]; SW480, 24 h) [%]	Protein Intensity, % (PRDX1) ([6]; SW620, 24 h) [%]	MIC (standard staphylococci)	further results
O=[N+]([O-])c1cc([N+]2=C(Nc3ccccc3Br)[S][Cu-2]23[S]C(Nc2ccccc2Br)=[N+]3c2ccc(Cl)c([N+](=O)[O-])c2)ccc1Cl [Compound 1, Copper (II) complex with 1-(2-bromophenyl)-3-(4-chloro-3-nitrophenyl)thiourea]	42.3	95.5	92.1	29% and 29.1%	67.8	88.8	29% and 29.3%	77.3	88.3	95.0	84.8	74.4	84.4	78.3	50.2	38.4% ± 2.4%	73.9	95.9	96.1	–	–
O=[N+]([O-])c1cc([N+]2=C(Nc3cccc(Br)c3)[S][Cu-2]23[S]C(Nc2cccc(Br)c2)=[N+]3c2ccc(Cl)c([N+](=O)[O-])c2)ccc1Cl [Compound 2, Copper (II) complex with 1-(3-bromophenyl)-3-(4-chloro-3-nitrophenyl)thiourea]	–	–	–	–	–	–	–	–	–	–	–	–	–	–	–	–	–	–	–	16 to 32 µg/mL	–
O=[N+]([O-])c1cc([N+]2=C(Nc3ccc(Br)cc3)[S][Cu-2]23[S]C(Nc2ccc(Br)cc2)=[N+]3c2ccc(Cl)c([N+](=O)[O-])c2)ccc1Cl [Compound 3, Copper (II) complex with 1-(4-bromophenyl)-3-(4-chloro-3-nitrophenyl)thiourea]	47.3	93.7	71.6	31.2%	77.7	77.1	40.9%	84.8	82.4	51.1	75.9	64.5	70.6	86.6	45.2	approximately 20%	47.8	88.5	89.0	–	reduction of intensity of the 12 tested enzymes [7]: 29.4–69.1%; decrease in the amount of GSTA1 [5]: 54.8%
O=[N+]([O-])c1cc([N+]2=C(Nc3ccc(F)c(Cl)c3)[S][Cu-2]23[S]C(Nc2ccc(F)c(Cl)c2)=[N+]3c2ccc(Cl)c([N+](=O)[O-])c2)ccc1Cl [Compound 4, Copper (II) complex with 1-(3-chloro-4-fluorophenyl)-3-(4-chloro-3-nitrophenyl)thiourea]	–	–	–	–	–	–	–	–	–	–	–	–	–	–	–	–	–	–	–	4 µg/mL	–
O=[N+]([O-])c1cc([N+]2=C(Nc3ccc(Cl)c(Cl)c3)[S][Cu-2]23[S]C(Nc2ccc(Cl)c(Cl)c2)=[N+]3c2ccc(Cl)c([N+](=O)[O-])c2)ccc1Cl [Compound 5, Copper (II) complex with 1-(4-chloro-3-nitrophenyl)-3-(3,4-dichlorophenyl)thiourea]	–	–	–	–	–	–	–	–	–	–	–	–	–	–	–	–	–	–	–	16 to 32 µg/mL and 32 µg/mL	–
O=[N+]([O-])c1cc([N+]2=C(Nc3ccccc3F)[S][Cu-2]23[S]C(Nc2ccccc2F)=[N+]3c2ccc(Cl)c([N+](=O)[O-])c2)ccc1Cl [Compound 7, Copper (II) complex with 1-(2-fluorophenyl)-3-(4-chloro-3-nitrophenyl)thiourea]	32.2	69.4	58.6	25.2%	65.1	45.3	36.7%	91.0	81.4	35.8	80.9	67.3	79.2	75.6	36.4	35.4% ± 2.8%	46.5	71.6	83.2	16 to 32 µg/mL	reduction of intensity of the 12 tested enzymes [7]: 20.8-87.6%
O=[N+]([O-])c1cc([N+]2=C(Nc3ccc(I)cc3)[S][Cu-2]23[S]C(Nc2ccc(I)cc2)=[N+]3c2ccc(Cl)c([N+](=O)[O-])c2)ccc1Cl [Compound 8, Copper (II) complex with 1-(4-iodophenyl)-3-(4-chloro-3-nitrophenyl)thiourea]	39.9	78.3	88.6	29.4%	94.3	92.7	42.0%	81.7	74.4	64.1	83.0	57.5	73.5	91.6	54.3	approximately 20%	52.3	84.4	93.5	4 µg/mL	reduction of intensity of the 12 tested enzymes [7]: 31.5–75.2%; decrease in the amount of GSTA1 [5]: 45.7%
